Laboratory results as given in patent publication US4140777A, “Cerebral vasodilating 6-substituted vincamines” (Enrico Corvi Mora, priority 1976, dated 1979).
Structures can show the parent of a compound that is named as a salt.

Experiments:
Format in all cases: in vivo
[1] = Acute toxicity per intraperitoneal route (LD50, method of Litchfield and Wilcoxon; Gleason classification); conditions: in vivo, ip; Swiss male mouse, suspension in 1% carboxymethylcellulose, observation 8 days
Method: (§1) The acute toxicity was assessed in the mouse of the Swiss type, having an average body weight of 20 g and of male sex, groups of 5 animals being used, according to the method of Litchfield and Wilcoxon (observation time: 8 days). The compounds were administered as a suspension in 1% carboxymethylcellulose.
(§2) The acute toxicity was low for all the examined compounds, as confirmed by the following table, in which those of the vincamine HCl and of the apovincamine are also reported.
(§3) In fact, for all the compounds, the toxicity, when evaluated according to the method of Gleason, can be classified as light, modest or negligible.

mouse of the Swiss type = experiment: as above; conditions: Gleason toxicity class, mouse i.p.
Method: as §1, §2, §3

vertebral arteria = experiment: Variation of the hematic flow at the vertebral arteria after i.v. administration (cerebral vasodilating activity); conditions: anestetized dog, i.v. (femoral vein) 5 mg/kg, left vertebral arteria, electromagnetic flowmeters
Description: The cerebral vasodilating activity was studied in the anestetized dog, by measuring, by means of Statham periarterial electromagnetic flowmeters, the hematic flow at the level of the vertebral arteria which, in such animal species, constitutes the greatest blood supply to the brain.
The results are reported in the TABLE as the percent variations of the flow measured at the level of the left vertebral arteria after the administration of the several compounds to be tested to groups of 4 animals for each compound. The results also confirm that the compounds of the invention are all endowed with a vasodilating activity at the level of the cerebral circulus. Such an action for some compounds is more relevant with respect to that of vincamine and of apovincamine.

[2] = Absorption: hematic levels at different times from the oral administration; conditions: blood, 100 mg/kg expressed as vincamine and apovincamine, suspension in 5% carboxymethyl cellulose, chromatographic method, read-out: max. conc. time (converted)
Method: All the compounds have been orally administered at the dosage of 100 mg/kg, expressed as vincamine and apovincamine, in form of a suspension in a 5% carboxymethyl cellulose solution.
The absorption was determined by evaluating the hematic levels at the following times (minutes): 0, 30, 120, 240, 480, 10 hours and 12 hours, at which it was possible to assess the time, from the administration, of the maximum hematic concentration.
The vincamine and apovincamine concentrations were assessed by chromatographic method.
For the evaluation of the prolonged action the following criterium was adopted; as derivatives having a long-acting effect, there are considered those which, 120 minutes after the administration, show hematic levels higher than those obtained with vincamine and apovincamine.

SMILES | LD50 at 192 h [1] [mg/kg] | Tox (Gleason) (mouse of the Swiss type) | Percent variations of the hematic flow at the vertebral arteria (vertebral arteria) | Tmax [2] [min]
CC[C@]12CCCN3CC(O)c4c(n(c5ccccc45)C(O)(C(=O)OC)C1)[C@@H]32 (some centres unmarked) [6-hydroxyvincamine] | 900 | modest | +33.4% | –
CC[C@]12CCCN3CC(=O)c4c(n(c5ccccc45)[C@](O)(C(=O)OC)C1)[C@@H]32 [6-keto-16-epivincamine] | > 2000 | negligible | +35.7% | –
CC[C@@]12C=C(C(=O)OC)n3c4c(c5ccccc53)C(=O)CN(CCC1)[C@H]42 [6-ketoapovincamine] | > 2000 | – | +29.2% | –
CC[C@]12CCCN3CC(=O)c4c(n(c5ccccc45)[C@@](O)(C(=O)OC)C1)[C@@H]32 [6-ketovincamine] | > 2000 | – | +28.4% | –
CC[C@]12CCCN3CC(=O)c4c(n(c5ccccc45)C(O)(CO)C1)[C@@H]32 (some centres unmarked) [6-ketovincaminol] | 1500 | light | +30.2% | –
CC[C@]12CCCN3CC(=O)c4c(n(c5ccccc45)C(=O)C1)[C@@H]32 [6-ketovincamone] | > 2000 | – | +30.2% | –
CC[C@@]12C=C(C(=O)OC)n3c4c(c5ccccc53)CCN(CCC1)[C@H]42 [Apovincamine, reference compound] | > 2000 | negligible | +25.6% | 60
CC[C@]12CCCN3CCc4c(n(c5ccccc45)[C@@](O)(C(=O)OC)C1)[C@@H]32 [Vincamine HCl, reference compound] | 800 | modest | +24.1% | 20
